These results are taken from ChEMBL document CHEMBL1129890, “Synthesis and evaluation of dual action cephalosporins as elastase inhibitors” (Bioorg Med Chem Lett, 1997).

A short description of data set [1]: Steady state velocity of inhibitor concentration required to inhibit porcine pancreatic elastase was determined by using Lineweaver-Burke Plot. Details: species or system Sus scrofa.
Data set [2] in a line: Hydrolytic stability was expressed as t1/2. Type of data set: physicochemical.
Data set [3] is described as follows: Steady state velocity of inhibitor concentration required to inhibit porcine pancreatic elastase was determined by using Dixon Plot. On the set-up: species or system Sus scrofa.

As for `CO[C@H]1C(=O)N2C(C(=O)OC(C)(C)C)=C(COC(=O)c3ccccc3OC(C)=O)CS(=O)(=O)C12` (some centres undefined), 110 nM corresponded to half-maximal inhibition in data set [1] (IC50). For the same compound, the half-life (usually how long it takes for the measured level to halve) in data set [2] was 1140 min.

As for `CC(=O)Oc1ccccc1C(=O)OCC1=C(C(=O)OC(C)(C)C)N2C(=O)[C@H](Cl)C2S(=O)(=O)C1` (some centres undefined), the values for the half-maximal inhibitory concentration (IC50) in data set [3] and in data set [1] were 0.35 µM and 250 nM, respectively. This compound had a half-life in data set [2] of 138 min.

As to `CC1=C(C(=O)OC(C)(C)C)N2C(=O)[C@H](Cl)C2S(=O)(=O)C1` (some centres undefined), the IC50 (usually the concentration needed to halve the response being measured) worked out at 11 µM in data set [3] and 35000 nM in data set [1].

With `CO[C@H]1C(=O)N2C(C(=O)OC(C)(C)C)=C(C)CS(=O)(=O)C12` (some centres undefined), the IC50 turned out to be 11 µM in data set [3] and 73000 nM in data set [1].

The compound `CO[C@H]1C(=O)N2C(C(=O)OC(C)(C)C)=C(COC(=O)Cc3ccccc3Nc3c(Cl)cccc3Cl)CS(=O)(=O)C12` (some centres undefined) had a half-maximal inhibitory concentration (IC50) in data set [1] of 110 nM. Moreover, the half-life in data set [2] is 3600 min.

As to `CC(C)(C)OC(=O)C1=C(COC(=O)Cc2ccccc2Nc2c(Cl)cccc2Cl)CS(=O)(=O)C2[C@@H](Cl)C(=O)N12` (some centres undefined), the IC50 in data set [3] turned out to be 0.68 µM; in data set [1] it was 180 nM. In addition, the half-life in data set [2] is 4380 min.
